According to PubChem BioAssay (NCI):
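Protocol summary: plate cells (96-well), add compound at 5 concentrations, incubate 48 h, interpolate endpoints linearly. The concentration for full growth arrest is given as TGI.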

Tests used:
Assay in all cases: growth of human tumour cells (NCI), 48 h
HCC-2998 colon = system: HCC-2998 colon
TK-10 renal = system: TK-10 renal
UACC-62 melanoma = system: UACC-62 melanoma
OVCAR-4 ovarian = system: OVCAR-4 ovarian
SR leukemia = system: SR leukemia
SF-268 CNS = system: SF-268 CNS
COLO 205 colon = system: COLO 205 colon
SK-OV-3 ovarian = system: SK-OV-3 ovarian
HOP-62 NSCLC = system: HOP-62 NSCLC
MOLT-4 leukemia = system: MOLT-4 leukemia

Row | SMILES | TGI (HCC-2998 colon) [µM] | TGI (TK-10 renal) [µM] | TGI (UACC-62 melanoma) [µM] | TGI (OVCAR-4 ovarian) [µM] | TGI (SR leukemia) [µM] | TGI (SF-268 CNS) [µM] | TGI (COLO 205 colon) [µM] | TGI (SK-OV-3 ovarian) [µM] | TGI (HOP-62 NSCLC) [µM] | TGI (MOLT-4 leukemia) [µM]
1 | COc1ccc(-c2c(C#N)c(N)nc3c2CCS(=O)(=O)c2ccccc2-3)cc1 | > 100 | > 100 | > 100 | > 100 | > 100 | > 100 | > 100 | – | – | –
2 | c1ccc(/C(=N/Nc2ccccn2)c2ncccn2)cc1 | > 100 | – | 12.2 | > 100 | > 27.5 | 5.06 | > 71.2 | > 28.7 | > 42.7 | –
3 | N#Cc1cc2c(cc1Cl)Sc1nccn1S2(=O)=O | – | 28 | 7.32 | 22.1 | 3.54 | 13 | 31.5 | 18.1 | 10.8 | 2.54
4 | O=c1c(-c2ccc(Cl)cc2)nnc2n(Cc3ccccc3)c3ccccc3n12 | > 100 | 61.8 | – | 30.7 | > 100 | > 100 | > 100 | – | 44.9 | > 100
5 | CCOC(=O)/C(C#N)=N\Nc1ccc(-n2c(C)nc3ccccc3c2=O)cc1 | – | > 100 | > 100 | – | > 100 | > 100 | > 100 | > 100 | > 100 | > 100
6 | Brc1cccc(N=NN2CCCC2)c1 | – | > 100 | > 100 | > 100 | > 100 | > 100 | > 100 | > 100 | > 100 | > 100
7 | O=[N+]([O-])c1ccc(NC(=S)N=Nc2c(O)[nH]c3ccc(Br)cc23)cc1 | – | 28.5 | 18.3 | 21.1 | 42.7 | 26.1 | 56.5 | 28.9 | 30.4 | > 100
8 | COCC1OC(N2C(=O)NC(=O)[C@@H]3C=C4CCCCC4=C[C@@H]32)C(OC)C1OC (stereo not given in full) | – | > 100 | > 100 | > 100 | > 100 | > 100 | – | > 100 | > 100 | > 100
9 | CSc1nc2c(c(=O)n1C)N=C(c1ccccc1)[C@H](C(CC(=O)c1ccccc1)c1ccccc1)C(c1ccccc1)N2 (stereo not given in full) | > 100 | – | > 100 | > 100 | > 100 | – | > 100 | – | > 100 | > 100
10 | CC1CC(=O)Nc2nc3ccccc3n21 (stereo not given) | – | > 100 | > 100 | > 100 | > 100 | > 100 | > 100 | > 100 | > 100 | > 100
11 | CC1(C)OCC2OC3([C@H]4OC(C)(C)O[C@@H]4CO)OC(C)(C)OC3C2O1 (stereo not given in full) | > 100 | – | > 100 | > 100 | > 100 | – | > 100 | – | > 100 | > 100
12 | NC(=O)c1cc2ccccc2o/c1=N/O | > 100 | > 100 | > 100 | – | > 100 | > 100 | > 100 | > 100 | > 100 | > 100
13 | CCOn1c(C2(CC3CCN(C(=O)c4ccccc4)CC3)OCCO2)cc2ccccc21 | – | 24.7 | 23.4 | 29.9 | 22.5 | 35 | 36.3 | 45.3 | 28.3 | 31.3
14 | Cn1c([O-])nc(-n2cc[n+](C)c2)cc1=O | – | > 100 | > 100 | > 100 | > 100 | > 100 | > 100 | > 100 | > 100 | > 100
15 | COc1cc(/C=C\C(=O)O)ccc1OCc1ccccc1 | > 100 | > 100 | > 100 | – | > 100 | > 100 | > 100 | > 100 | > 100 | > 100
16 | COCc1nc2c(OC)cc(-c3nc4ccc(N5CCN(C)CC5)cc4[nH]3)c(OC)c2[nH]1 | – | > 100 | > 100 | > 100 | 54.6 | > 100 | 77 | > 100 | > 100 | > 100
17 | CC(=O)OCC(OC(C)=O)C1C[C@H]2O[C@@H]3[C@H](C[C@H]2O1)O[C@@]1(C[C@@H]3C)C[C@H](C)[C@@H]2O[C@]3(C[C@@H]2O1)C[C@H]1O[C@H]2[C@H](C)[C@H]4OC(=O)CC5CC[C@H]6OC7[C@H]8O[C@]9(CC[C@H]%10CC(O)(CO)[C@H](CC[C@H]%11C[C@@H](C)C(O)(CO)C(C[C@@H]4O[C@H]2C[C@H]1O3)O%11)O%10)CC8O[C@@H]7[C@@H](O9)[C@H]6O5 (stereo not given in full) | – | > 1 | > 1 | > 1 | > 1 | > 1 | 0.0696 | > 1 | > 1 | > 1
18 | O=C(Cc1ccc([N+](=O)[O-])cc1)OCC#CCOC(=O)Cc1ccc([N+](=O)[O-])cc1 | – | > 10 | > 10 | > 10 | > 10 | > 10 | – | > 10 | – | > 10
